The source of these data is ChEMBL document CHEMBL1142424, “Octanorcucurbitane and cucurbitane triterpenoids from the tubers of Hemsleya endecaphylla with HIV-1 inhibitory activity” (J Nat Prod, 2008).

Series [1] in a line: Cytotoxicity against human C8166 cells by MTT method. Type of series: cell-based.
In series [2] the test system is Human immunodeficiency virus 1. Briefly: Antiviral activity against HIV1 in C8166 cells after 72 hrs. Format: functional, organism-based. Conditions: Human immunodeficiency virus 1, C8166, 72 h.
Series [3] in a line: Selectivity index, ratio of CC50 for human C8166 cells to EC50 for HIV1. Format: functional.

Converted amounts (≈) assume the structure as drawn.

`CC1(C)C(=O)C(O)=C[C@@H]2C1=CC[C@@H]1[C@@]2(C)C(=O)C[C@]2(C)CC(=O)C[C@@]12C` [ENDECAPHYLLACIN B] showed a CC50 in series [1] of 62 µg/mL (≈ 174 µM). Moreover, in series [2], the EC50 was found to be 12 µg/mL (≈ 33.7 µM). In addition, the “Ratio CC50/EC50” value in series [3] came out at 5.

In turn, `Cc1cn([C@H]2C[C@H](N=[N+]=[N-])[C@@H](CO)O2)c(=O)[nH]c1=O` [ZIDOVUDINE] yielded a CC50 in series [1] greater than 200 µg/mL. For the same compound, the EC50 in series [2] was 0.0034 µg/mL (≈ 0.0127 µM). For the same compound, the “Ratio CC50/EC50” value in series [3] is given as greater than 50000.

Turning to `CC(=O)OC(C)(C)CCC(=O)[C@](C)(O)[C@H]1[C@H](O)C[C@@]2(C)[C@@H]3CC=C4[C@@H](C=C(O)C(=O)C4(C)C)[C@]3(C)C(=O)C[C@]12C`, half-maximal cytotoxicity in series [1] (CC50) was put at 21.6 µg/mL (≈ 38.7 µM). For the same compound, the EC50 in series [2] came out at 2.4 µg/mL (≈ 4.3 µM). The “Ratio CC50/EC50” value in series [3] stood at 9.2.

In turn, `CC(C)(O)/C=C/C[C@@](C)(O)[C@H]1[C@H](O)C[C@@]2(C)[C@@H]3CC=C4[C@@H](C[C@H](O)C(=O)C4(C)C)[C@]3(C)C(=O)C[C@]12C` yielded a CC50 in series [1] of 121 µg/mL (≈ 241 µM). Besides, a half-maximal response in series [2] (EC50) required 15.8 µg/mL (≈ 31.4 µM). Besides, the “Ratio CC50/EC50” value in series [3] turned out to be 7.7.

For the compound `CC(C)(O)CCC(=O)[C@@](C)(O)[C@H]1[C@H](O)C[C@@]2(C)[C@@H]3CC=C4[C@@H](C[C@H](O)C(=O)C4(C)C)[C@]3(C)C(=O)C[C@]12C`, the CC50 in series [1] was 6.5 µg/mL (≈ 12.5 µM). This compound had an EC50 in series [2] of 0.13 µg/mL (≈ 0.251 µM). Moreover, the “Ratio CC50/EC50” value in series [3] came out at 50.

Regarding `CC(=O)OC(C)(C)CCC(=O)[C@](C)(O)[C@H]1[C@H](O)C[C@@]2(C)[C@@H]3CC=C4[C@@H](C[C@H](O)C(=O)C4(C)C)[C@]3(C)C(=O)C[C@]12C` [23,24-DIHYDROCUCURBITACIN B], it took 25.5 µg/mL (≈ 45.5 µM) to reach half-maximal cytotoxicity in series [1] (CC50). Also, a half-maximal effect in series [2] (EC50) was put at 4.2 µg/mL (≈ 7.49 µM). In series [3], the “Ratio CC50/EC50” value worked out at 6.1.

Consider `CC(C)(O)/C=C/C(=O)[C@](C)(O)[C@H]1[C@H](O)C[C@@]2(C)[C@@H]3CC=C4[C@@H](C=C(O)C(=O)C4(C)C)[C@]3(C)C(=O)C[C@]12C` [CUCURBITACIN I], for which the CC50 in series [1] stood at 14.4 µg/mL (≈ 28 µM). For the same compound, the response in series [2] was half-maximal at 0.7 µg/mL (≈ 1.36 µM) (EC50). In addition, the “Ratio CC50/EC50” value in series [3] is recorded as 20.6.

Turning to `CC(=O)OC(C)(C)/C=C/C(=O)[C@](C)(O)[C@H]1[C@H](O)C[C@@]2(C)[C@@H]3CC=C4[C@@H](C[C@H](O)C(=O)C4(C)C)[C@]3(C)C(=O)C[C@]12C` [CUCURBITACIN B], the CC50 in series [1] was 1.5 µg/mL (≈ 2.68 µM).

As for `CC1(C)C(=O)[C@@H](O)C[C@@H]2C1=CC[C@@H]1[C@@]2(C)C(=O)C[C@]2(C)CC(=O)C[C@@]12C` [ENDECAPHYLLACIN A], the CC50 in series [1] is greater than 200 µg/mL. Further, the EC50 in series [2] came to 31.6 µg/mL (≈ 88.2 µM). In series [3], the “Ratio CC50/EC50” value is listed as greater than 6.3.

The compound `CC(=O)OC(C)(C)/C=C/C(=O)[C@](C)(O)[C@H]1[C@H](O)C[C@@]2(C)[C@@H]3CC=C4[C@H](C[C@H](O)C(=O)C4(C)C)[C@]3(C)C(=O)C[C@]12C` [CUCURBITACIN B] registered an EC50 in series [2] of 0.09 µg/mL (≈ 0.161 µM). In addition, the “Ratio CC50/EC50” value in series [3] is recorded as 16.7.
